Here are results for 21 compounds from patent US11111251B2, “Positive allosteric modulators of the muscarinic acetylcholine receptor M1” (Vanderbilt University, priority 2016, dated 2021).

Structures are written as SMILES. Read-outs that look alike come from different tables or passages of the source. A value given as a limit tells only on which side of the number the result lay.

For this assay, the target named is T1, human mAChR M1 (Homo sapiens, UniProt P11229).
T1 sequence (P11229 1-460): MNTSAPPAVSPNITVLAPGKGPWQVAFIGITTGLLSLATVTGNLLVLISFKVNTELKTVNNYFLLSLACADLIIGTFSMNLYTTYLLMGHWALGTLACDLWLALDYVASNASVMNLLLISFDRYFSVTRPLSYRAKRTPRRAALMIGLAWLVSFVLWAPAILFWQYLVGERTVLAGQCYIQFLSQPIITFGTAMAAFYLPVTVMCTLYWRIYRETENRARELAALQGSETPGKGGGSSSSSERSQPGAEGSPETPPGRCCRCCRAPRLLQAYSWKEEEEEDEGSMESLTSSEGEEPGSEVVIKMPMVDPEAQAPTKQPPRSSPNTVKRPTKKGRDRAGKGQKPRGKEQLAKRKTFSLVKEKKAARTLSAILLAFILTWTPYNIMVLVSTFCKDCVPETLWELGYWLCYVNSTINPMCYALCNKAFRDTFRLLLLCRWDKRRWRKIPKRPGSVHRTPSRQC
The assay is described as follows: mAChR M1 cell-based functional assay: calcium mobilization, positive allosteric modulator mode (increase in EC20 acetylcholine response). The note with it: for Emax: read-out: Human M1 Emax (%). The source says:
a. Cell Lines Expressing Muscarinic Acetylcholine Receptors
Chinese hamster ovary (CHO-K1) cells stably expressing rat (r)M1 were purchased from the American Type Culture Collection and cultured according to their indicated protocol. CHO cells stably expressing human (h)M2, hM3, and hM5 were described previously (Levey, et al., 1991); hMi and hM4 cDNAs were purchased from Missouri S&T cDNA Resource; rM4 cDNA was provided by T. I. Bonner (National Institutes of Health, Bethesda, Md.). rM2 and rM3 were cloned from a rat brain cDNA library and sequence verified. hMi, rM2, rM3, hM4, and rM4 cDNAs were used to stably transfect CHO-K1 cells purchased from the American Type Culture Collection using Lipofectamine2000. To make stable rM2, hM2, rM3, hM4, and rM4 cell lines for use in calcium mobilization assays, these cells also were stably transfected with a chimeric G-protein (Gqi5) (provided by B. R. Conklin, University of California, San Francisco) using Lipofectamine 2000. rMi, hMi, rM3, hM3, rM5, and hM5 cells were grown in Ham's F-12 medium containing 10% heat-inactivated fetal bovine serum (FBS), 20 mM HEPES, and 50 μg/mL G418 sulfate. rM2-Gqi5, hM2-Gqi5, and hM4-Gqi5 cells were grown in the same medium also containing 500 μg/mL Hygromycin B. Stable rM4-Gqi5 cells were grown in DMEM containing 10% heat-inactivated FBS, 20 mM HEPES, 400 μg/mL G418 sulfate, and 500 μg/mL Hygromycin B.
b. Cell-Based Functional Assay of Muscarinic Acetylcholine Receptor Activity
For high throughput measurement of agonist-evoked increases in intracellular calcium, CHO-K1 cells stably expressing muscarinic receptors were plated in growth medium lacking G418 and hygromycin at 15,000 cells/20 μL/well in Greiner 384-well black-walled, tissue culture (TC)-treated, clear-bottom plates (VWR). Cells were incubated overnight at 37° C. and 5% CO2. The next day, cells were washed using an ELX 405 (BioTek) with four washes (80 μL) of assay buffer then aspirated to 20 μL. Next, 20 μL of 16 μM Fluo-4/acetoxymethyl ester (Invitrogen, Carlsbad, Calif.) prepared as a 2.3 mM stock in DMSO and mixed in a 1:1 ratio with 10% (w/v) Pluronic F-127 and diluted in assay buffer was added to the wells and the cell plates were incubated for 50 min at 37° C. and 5% CO2. Dye was removed by washing with the ELX 405 (four […], washes of assay buffer) then aspirated to 20 μL. Compound master plates were formatted in an 11 point CRC format (1:3 dilutions) in 100% DMSO with a starting concentration of 10 mM using the BRAVO liquid handler (Agilent). Test compound CRCs were then transferred to daughter plates (240 nL) using the Echo acoustic plate reformatter (Labcyte, Sunnyvale, Calif.) and then diluted into assay buffer (40 μL) to a 2× stock using a Thermo Fisher Combi (Thermo Fisher Scientific, Waltham, Mass.).
Calcium flux was measured using the Functional Drug Screening System (FDSS) 6000 (Hamamatsu Corporation, Tokyo, Japan) as an increase in the fluorescent static ratio. Compounds were applied to cells (20 μL, 2×) using the automated system of the FDSS 6000 at 4 s into the 300 s protocol and the data were collected at 1 Hz. At 144 s into the 300s protocol, 10 μL of an EC20 concentration of the muscarinic receptor agonist acetylcholine was added (5×), followed by the addition of 12 μL an EC80 concentration of acetylcholine at the 230 s time point (5×). Agonist activity was analyzed as a concentration-dependent increase in calcium mobilization upon compound addition. Positive allosteric modulator activity was analyzed as a concentration-dependent increase in the EC20 acetylcholine response. Antagonist activity was analyzed as a concentration-dependent decrease in the EC80 acetylcholine response. Concentration-response curves were generated using a four-parameter logistical equation in XLfit curve fitting software (IDBS, Bridgewater, N.J.) for Excel (Microsoft, Redmond, Wash.) or Prism (GraphPad Software, Inc., San Diego, Calif.).
A general note: Calcium assays in cells follow changes in intracellular calcium, usually with a dye or a luminescent sensor.

Where [1] appears, read: Table 2, human M1, read-out: Human M1 EC50.
Setting [2] is: Table 1, mAChR M1 cell-based functional assay, PAM mode, species not given, read-out: EC50.

Turning to `Cn1cc(-c2ccc(Cc3cc(C(=O)NC4CCOC(C)(C)C4)nc4ccsc34)cc2)cn1` (centres unmarked) [Compound 381, N-(2,2-dimethyltetrahydropyran-4-yl)-7-[[4-(1-methylpyrazol-4-yl)phenyl]methyl]thieno[3,2-b]pyridine-5-carboxamide], the EC50 (commonly the concentration at which the effect is half-maximal) under setting [1] worked out at 98.1 nM. The Emax (commonly the size of the effect at its maximum, as opposed to the concentration needed) (Table 2, human M1) is 60.4%.
As for `Cc1csc2c(Cc3ccc(-n4cccn4)cc3)cc(C(=O)N[C@@H]3CCOC[C@H]3O)nc12` [Compound 117, N-[(3S,4R)-3-hydroxytetrahydropyran-4-yl]-3-methyl-7-[(4-pyrazol-1-ylphenyl)methyl]thieno[3,2-b]pyridine-5-carboxamide], the EC50 under setting [1] came to 83.3 nM. Under “Table 2, human M1”, the Emax stood at 76.6%.
Taken in the same sequence, the figures for `Cn1cc(-c2ccc(Cc3cc(C(=O)NC4COC4)nc4ccsc34)cn2)cn1` [Compound 341, 7-[[6-(1-methylpyrazol-4-yl)-3-pyridyl]methyl]-N-(oxetan-3-yl)thieno[3,2-b]pyridine-5-carboxamide] were 1690 nM and 78.8%.
For `Cc1nc(-c2ccc(Cc3cc(C(=O)NC4CCCCNC4=O)nc4ccsc34)cc2)cs1` (centres unmarked) [Compound 199, 7-[[4-(2-methylthiazol-4-yl)phenyl]methyl]-N-(2-oxoazepan-3-yl)thieno[3,2-b]pyridine-5-carboxamide], in that order: 1420 nM and 88.1%.
Taken in the same sequence, the figures for `Cn1ccc(-c2ccc(Cc3cc(C(=O)N[C@H]4CCOC[C@@H]4O)nc4ccsc34)cn2)n1` [Compound 353, N-[(3R,4S)-3-hydroxytetrahydropyran-4-yl]-7-[[6-(1-methylpyrazol-3-yl)-3-pyridyl]methyl]thieno[3,2-b]pyridine-5-carboxamide] were 5.05 nM and 62.1%.
With `Cn1cc(-c2ccc(Oc3cc(C(=O)N[C@H]4COCC[C@@H]4O)nc4ccsc34)c(F)c2)cn1` [Compound 8], under setting [2], the concentration giving a half-maximal response (EC50) was 7790 nM.
Regarding `Cc1nc(-c2ccc(Cc3cc(C(=O)NC4CCN(C)CC4)nc4ccsc34)cc2)cs1` [Compound 187, N-(1-methyl-4-piperidyl)-7-[[4-(2-methylthiazol-4-yl)phenyl]methyl]thieno[3,2-b]pyridine-5-carboxamide], the EC50 under setting [1] amounted to 3200 nM. Besides, the Emax (Table 2, human M1) stood at 72.1%.
With `Cc1ccc(Oc2cc(C(=O)N[C@H]3COCC[C@@H]3O)nc3ccsc23)cn1` [Compound 23, N-[(3S,4S)-4-hydroxytetrahydropyran-3-yl]-7-[(6-methyl-3-pyridyl)oxy]thieno[3,2-b]pyridine-5-carboxamide], the EC50 under setting [2] was over 10000 nM.
Same read-out and setting: next, `Cc1ccc(Cc2cc(C(=O)NC3CCCCC3)nc3ccsc23)cn1` [Compound 43, N-cyclohexyl-7-[(6-methyl-3-pyridyl)methyl]thieno[3,2-b]pyridine-5-carboxamide]: 1990 nM.
As to `O=C(NCC1CCOC1)c1cc(Cc2ccc(-c3cncs3)cc2)c2sccc2n1` (centres unmarked) [Compound 396, N-(tetrahydrofuran-3-ylmethyl)-7-[(4-thiazol-5-ylphenyl)methyl]thieno[3,2-b]pyridine-5-carboxamide], the EC50 under setting [1] came out at 1060 nM. Besides, the Emax (Table 2, human M1) is 63%.
For `O=C(NC1CCCCC1)c1cc(Cc2ccc(-c3cscn3)cc2)c2sccc2n1` [Compound 209, N-cyclohexyl-7-[(4-thiazol-4-ylpheny)methyl]thieno[3,2-b]pyridine-5-carboxamide], in that order: 3890 nM and 69.7%.
For `Cc1nc(-c2ccc(Cc3cc(C(=O)N4CCC[C@@H](O)C4)nc4ccsc34)cc2)co1` [Compound 173, [(3R)-3-hydroxy-1-piperidyl]-[7-[[4-(2-methyloxazol-4-yl)phenyl]methyl]thieno[3,2-b]pyridin-5-yl]methanone], in that order: over 10000 nM and 37%.
For `Cc1ccc(Cc2cc(C(=O)N[C@@H]3CCCNC3)nc3ccsc23)cn1` [Compound 265, 7-[(6-methyl-3-pyridyl)methyl]-N-[(3R)-3-piperidyl]thieno[3,2-b]pyridine-5-carboxamide], in that order: over 10000 nM and 56.4%.
As for `Cc1ccc(Cc2cc(C(=O)NC3CCCCCC3(C)O)nc3ccsc23)cn1` (centres unmarked) [Compound 235, N-(2-hydroxy-2-methyl-cycloheptyl)-7-[(6-methyl-3-pyridyl)methyl]thieno[3,2-b]pyridine-5-carboxamide], under setting [1], the EC50 worked out at 1010 nM. Moreover, the Emax (Table 2, human M1) is 71.1%.
For `Cn1cc(-c2ccc(Cc3cc(C(=O)N[C@@H]4CC[C@H]4O)nc4ccsc34)c(F)c2)cn1` [Compound 55, 7-[[2-fluoro-4-(1-methylpyrazol-4-yl)phenyl]methyl]-N-[(1R,2R)-2-hydroxycyclobutyl]thieno[3,2-b]pyridine-5-carboxamide], in that order: 5700 nM and 31.1%.
For `Cc1nc(-c2ccc(Cc3cc(C(=O)NC4CCCN(C)C4)nc4ccsc34)cc2)cs1` (centres unmarked) [Compound 186, N-(1-methyl-3-piperidyl)-7-[[4-(2-methylthiazol-4-yl)phenyl]methyl]thieno[3,2-b]pyridine-5-carboxamide], in that order: 3290 nM and 74.2%.
For `Cn1ccc2nc(C(=O)NC3CCOC(C)(C)C3)cc(Cc3ccc(-c4cscn4)cc3)c21` (centres unmarked) [Compound 461, N-(2,2-dimethyltetrahydropyran-4-yl)-1-methyl-7-[(4-thiazol-4-ylphenyl)methyl]pyrrolo[3,2-b]pyridine-5-carboxamide], in that order: 410 nM and 70.8%.
As to `Cc1nc(-c2ccc(Cc3cc(C(=O)NC4CC(F)C4)nc4ccsc34)cc2)cs1` (centres unmarked) [Compound 181, N-(3-fluorocyclobutyl)-7-[[4-(2-methylthiazol-4-yl)phenyl]methyl]thieno[3,2-b]pyridine-5-carboxamide], the concentration giving a half-maximal response (EC50) under setting [1] was found to be 3820 nM. The Emax (Table 2, human M1) was determined as 64%.
For the compound `Cc1ccc(Oc2cc(C(=O)N[C@H]3CCC[C@@H]3O)nc3ccsc23)cn1` [Compound 18, N-[(1S,2S)-2-hydroxycyclopentyl]-7-[(6-methyl-3-pyridyl)oxy]thieno[3,2-b]pyridine-5-carboxamide], the EC50 under setting [2] is over 10000 nM.
Regarding `Cn1ccc(-c2ccc(Cc3cc(C(=O)N[C@H]4CCC[C@@H]4O)nc4ccsc34)cc2)n1` [Compound 253, N-[(1S,2S)-2-hydroxycyclopentyl]-7-[[4-(1-methylpyrazol-3-yl)phenyl]methyl]thieno[3,2-b]pyridine-5-carboxamide], the half-maximal effective concentration (EC50) under setting [1] worked out at 144 nM. For the same compound, the Emax (Table 2, human M1) is 74.5%.
For `Cc1ccc(Cc2cc(C(=O)Nc3n[nH]c4ccccc34)nc3ccsc23)cn1` [Compound 65, N-(1H-indazol-3-yl)-7-[(6-methyl-3-pyridyl)methyl]thieno[3,2-b]pyridine-5-carboxamide], in that order: 1720 nM and 37.3%.
